Data from US20260191768A1, “PHARMACEUTICAL COMPOSITION CONTAINING HIGH CONCENTRATION OF OPIRANSERIN” (VIVOZON, INC., priority 2022, published 2026).
Where a name gives a salt, the structure may show the parent alone.

How the values were obtained:
Type in all cases: physicochemical
[1] = Screening of hydrotropes for improving solubility of opiranserin hydrochloride
Protocol: After adding 50 mL of water for injection into a 200 mL beaker, a weight of hydrotrope corresponding to the target content was added thereto and stirred at room temperature to completely dissolve it. Then, a weight of opiranserin hydrochloride corresponding to the target concentration was added and stirred at room temperature to completely dissolve it. If it was not completely dissolved in some solvents, the temperature was raised to 40° C. and additional stirring was carried out. When the added materials were completely dissolved, water for injection was added to the beaker to reach the 100 mL mark and further stirred to ensure that the composition was completely mixed. The prepared compositions were filtered using a 0.2 μm syringe filter and then dispensed into vials for injection.

[2] = Room temperature stability of dissolved opiranserin hydrochloride; conditions: for Opiranserin hydrochloride concentration, Initial: prepared at 40° C. for 3 hours
Protocol: Among solvents showing high solubility in Experimental Example 1, the solvents that have no irritation or can minimize irritation when preparing medicines were selected as shown in Table 2. Then, the solubility and short-term room temperature stability of opiranserin hydrochloride according to the concentration content were estimated. Each preparation was prepared by adjusting the solvent according to the concentration, adding an excess amount of opiranserin hydrochloride, and stirring at 40° C. for 3 hours. The preparation was centrifuged, the supernatant was transferred to a glass vial, and stored at room temperature to observe properties and analyze content. Liquid chromatography (HPLC) was used to analyze the content of opiranserin hydrochloride, and sampling was carried out upon completion of preparation and after storage at room temperature for 65 hours.

[3] = Solubility of opiranserin hydrochloride as stated in the description; conditions: solvent not stated; regarded as "sparingly soluble"
[4] = Solubility measurement of opiranserin hydrochloride according to solvents (HPLC); conditions: for solubility at 7 days / solubility at 3 h: thermodynamic from solid; for solubility at 7 days: 25° C./7 days
Protocol: An excess amount of opiranserin hydrochloride was added to the solvents shown in Table 1, stirred under the following conditions, centrifuged and filtered, and the filtrate was diluted. The solubility of the drug was measured using high-performance liquid chromatography (HPLC).

[5] = Solvent 27: 1 w/v % Poloxamer 124
[6] = Solvent 28: 5 w/v % Poloxamer 124
[7] = Solvent 29: 1 w/v % Propylene glycol
[8] = Solvent 30: 5 w/v % Propylene glycol

## CCCCOc1c(OC)cc(C(=O)NCC2(N(C)C)CCOCC2)cc1OC [Opiranserin hydrochloride, 4-butoxy-N-((4-(dimethylamino)tetrahydro-2H-pyran-4-yl)methyl)-3,5-dimethoxy benzamide]
[1]; sodium benzoate used as a hydrotrope
  Concentration of opiranserin hydrochloride that could be dissolved: up to 300 mg/mL
[1]; sodium salicylate used as a hydrotrope
  Concentration of opiranserin hydrochloride that could be stably dissolved: up to 100 mg/mL
[1]; trisodium citrate dihydrate used as a hydrotrope
  Concentration of opiranserin hydrochloride that could be stably dissolved: up to 100 mg/mL
[2]; Solvent 25: 1 w/v % Triacetin
  Change in properties after storage at room temperature for 65 hours: Recrystallization generation
  Opiranserin hydrochloride concentration, After storage at room temperature for 65 hours: 44.33 mg/mL
  Opiranserin hydrochloride concentration, Initial: 78.6 mg/mL
[2]; Solvent 26: 6 w/v % Triacetin
  Change in properties after storage at room temperature for 65 hours: Recrystallization generation
  Opiranserin hydrochloride concentration, After storage at room temperature for 65 hours: 38.1 mg/mL
  Opiranserin hydrochloride concentration, Initial: 86.1 mg/mL
[2]; Solvent 26: 6 w/v % Triacetin, listed as opiranserin hydrochloride
  Change in properties after storage at room temperature for 65 hours: recrystallization of needle-shaped structure was generated
[2]; [5]
  Change in properties after storage at room temperature for 65 hours: Recrystallization generation
  Opiranserin hydrochloride concentration, After storage at room temperature for 65 hours: 41.1 mg/mL
  Opiranserin hydrochloride concentration, Initial: 72.1 mg/mL
[2]; [6]
  Change in properties after storage at room temperature for 65 hours: Recrystallization generation
  Opiranserin hydrochloride concentration, After storage at room temperature for 65 hours: 42.5 mg/mL
  Opiranserin hydrochloride concentration, Initial: 83.8 mg/mL
[2]; [7]
  Change in properties after storage at room temperature for 65 hours: Recrystallization generation
  Opiranserin hydrochloride concentration, After storage at room temperature for 65 hours: 34.8 mg/mL
  Opiranserin hydrochloride concentration, Initial: 61.8 mg/mL
[2]; [8]
  Change in properties after storage at room temperature for 65 hours: Recrystallization generation
  Opiranserin hydrochloride concentration, After storage at room temperature for 65 hours: 34.8 mg/mL
  Opiranserin hydrochloride concentration, Initial: 74.0 mg/mL
[3]
  solubility: 25 mg/mL
[4]; 1 w/v % Caprylocaproyl polyoxyl 8 glyceride, 25 °C, aqueous with cosolvent or surfactant or cyclodextrin, Solvent 7: 1 w/v % Caprylocaproyl polyoxyl 8 glyceride
  solubility at 7 days: 46.2 mg/mL
[4]; 1 w/v % Hydroxpropyl-beta-cyclodextrin, 25 °C, aqueous with cosolvent or surfactant or cyclodextrin, Solvent 10: 1 w/v % Hydroxpropyl-beta-cyclodextrin
  solubility at 7 days: 49.2 mg/mL
[4]; 1 w/v % Macrogol 15 hydroxystearate, 25 °C, aqueous with cosolvent or surfactant or cyclodextrin, Solvent 8: 1 w/v % Macrogol 15 hydroxystearate
  solubility at 7 days: 44 mg/mL
[4]; 1 w/v % PEG-6 caprylic/capric glyceride, 25 °C, aqueous with cosolvent or surfactant or cyclodextrin, Solvent 16: 1 w/v % PEG-6 caprylic/capric glyceride
  solubility at 7 days: 49 mg/mL
[4]; 1 w/v % Poloxamer 124, 40 °C, aqueous with cosolvent or surfactant or cyclodextrin, Solvent 21: 1 w/v % Poloxamer 124, 40° C./3 hours
  solubility at 3 h: 72.1 mg/mL
[4]; 1 w/v % Polyoxyl 35 castor oil, 25 °C, aqueous with cosolvent or surfactant or cyclodextrin, Solvent 6: 1 w/v % Polyoxyl 35 castor oil
  solubility at 7 days: 42.1 mg/mL
[4]; 1 w/v % Polysorbate 80, 25 °C, aqueous with cosolvent or surfactant or cyclodextrin, Solvent 9: 1 w/v % Polysorbate 80
  solubility at 7 days: 44.7 mg/mL
[4]; 1 w/v % Propylene glycol, 40 °C, water, Solvent 23: 1 w/v % Propylene glycol, 40° C./3 hours
  solubility at 3 h: 61.8 mg/mL
[4]; 1 w/v % Triacetin, 25 °C, water, Solvent 13: 1 w/v % Triacetin
  solubility at 7 days: 49.7 mg/mL
[4]; 1 w/v % Triacetin, 40 °C, water, Solvent 19: 1 w/v % Triacetin, 40° C./3 hours
  solubility at 3 h: 78.6 mg/mL
[4]; 3 w/v % Hydroxpropyl-beta-cyclodextrin, 25 °C, aqueous with cosolvent or surfactant or cyclodextrin, Solvent 11: 3 w/v % Hydroxpropyl-beta-cyclodextrin
  solubility at 7 days: 55.6 mg/mL
[4]; 3 w/v % PEG-6 caprylic/capric glyceride, 25 °C, aqueous with cosolvent or surfactant or cyclodextrin, Solvent 17: 3 w/v % PEG-6 caprylic/capric glyceride
  solubility at 7 days: 57 mg/mL
[4]; 3 w/v % Triacetin, 25 °C, water, Solvent 14: 3 w/v % Triacetin
  solubility at 7 days: 57.1 mg/mL
[4]; 5 w/v % Poloxamer 124, 40 °C, aqueous with cosolvent or surfactant or cyclodextrin, Solvent 22: 5 w/v % Poloxamer 124, 40° C./3 hours
  solubility at 3 h: 83.8 mg/mL
[4]; 5 w/v % Propylene glycol, 40 °C, aqueous with cosolvent or surfactant or cyclodextrin, Solvent 24: 5 w/v % Propylene glycol, 40° C./3 hours
  solubility at 3 h: 74 mg/mL
[4]; 6 w/v % Hydroxpropyl-beta-cyclodextrin, 25 °C, aqueous with cosolvent or surfactant or cyclodextrin, Solvent 12: 6 w/v % Hydroxpropyl-beta-cyclodextrin
  solubility at 7 days: 63.3 mg/mL
[4]; 6 w/v % PEG-6 caprylic/capric glyceride, 25 °C, aqueous with cosolvent or surfactant or cyclodextrin, Solvent 18: 6 w/v % PEG-6 caprylic/capric glyceride
  solubility at 7 days: 67.6 mg/mL
[4]; 6 w/v % Triacetin, 25 °C, aqueous with cosolvent or surfactant or cyclodextrin, Solvent 15: 6 w/v % Triacetin
  solubility at 7 days: 72.7 mg/mL
[4]; 6 w/v % Triacetin, 40 °C, aqueous with cosolvent or surfactant or cyclodextrin, Solvent 20: 6 w/v % Triacetin, 40° C./3 hours
  solubility at 3 h: ~86 mg/mL
[4]; 100% Ethanol, 25 °C, organic solvent or mixture, Solvent 2: 100% Ethanol
  solubility at 7 days: 25.1 mg/mL
[4]; 100% Methanol, 25 °C, organic solvent or mixture, Solvent 3: 100% Methanol
  solubility at 7 days: 36 mg/mL
[4]; 100% Polyethylene, 25 °C, organic solvent or mixture, Solvent 5: 100% Polyethylene
  solubility at 7 days: 2.59 mg/mL
[4]; 100% Propylene glycol, 25 °C, organic solvent or mixture, Solvent 4: 100% Propylene glycol
  solubility at 7 days: 13 mg/mL
[4]; Purified water, 25 °C, water, Solvent 1: Purified water
  solubility at 7 days: 45.2 mg/mL
[4]; Solvent 20: 6 w/v % Triacetin, 40° C./3 hours
  Opiranserin hydrochloride Solubility: 86.1 mg/mL
